For data set [1], the system named is rats. Particulars: ref [75]; cited from earlier work.
Data set [2] concerns rodent. The conditions noted are these: chromosomal Aberration test, micronucleus test, transgenic rodent gene mutation assay; ref [48], [58]–[63]; cited from earlier work.
In a further data set the test system is mouse organs. The conditions noted are these: ref [80]; cited from earlier work.
The test system of a further data set is TK6 cells. The conditions noted are these: human.
The test system of the next data set is LacI transgenic mice. Particulars: ref [77]; cited from earlier work.
In data set [3] the test system is human lymphoblastoid TK6 cells, thymidine kinase gene. The data set can be described thus: TK gene mutation assay (TK6 assay, OECD TG490).
Method: In principle, this collaborative study conducted the treatment of test substances, the dose finding, and the main test of TK6 assays, according to the OECD Guideline TG490 [17]. […] Briefly, test substances were dissolved in an appropriate solvent (DMSO or ethanol) and then serially diluted to prepare final concentrations. […] The 4 h and 24 h treatments were conducted by shaking and static exposures, respectively. After treatment with test substances, cells were centrifuged (1000 rpm, 5 min), supernatants were removed, and cells were washed with a serum-free medium or Hank’s Balanced Salt Solution. After centrifugation (1000 rpm, 5 min) to remove the supernatant, cells (2 × 10^7 cells) were dispersed in an RPMI medium containing 10% serum, and cell concentration was measured. Treated cells were cultured at 37 °C with 5% CO2 condition and used for TK6 assays. At that time, to calculate the cloning efficiency (CE) (Eq. 1), the cells were cultured in a 96-well microplate at a concentration of about 1.6 cells/well for 2 weeks.
The TK6 assay is conducted between 20 and 10% RS0 as a maximum dose if cytotoxicity is observed. If no precipitate or limiting cytotoxicity was observed, the maximum dose was the lowest concentration among 10 mM, 2 mg/mL, or 2 μL/mL of the test substance. When the main TK6 assay was difficult to conduct under the condition of RS0 values from 20 to 10%, the test was conducted between 20 and 10% relative total growth (RTG), described later, as a maximum dose.
On the third day of culture, CE3 plates for determining plating efficiency and mutant frequency (MF) plates for mutation detection were prepared. CE3 plates were seeded in 96-well microplates at a concentration of about 1.6 cells/well. The MF plates were seeded in 96-well microplates at 40,000 cells/well in the presence of 3 μg/mL of trifluorothymidine (Sigma Aldrich).
Mutant colonies in MF plates were calculated using Eq. 7 using the Poisson distribution. EW was the number of wells without colonies, and TW was the total number of wells. N was the average number of cells per well (N = 40,000 in this study). The data were statistically analyzed by Omori’s method, a modified Dunnett’s procedure for identifying clear negatives, a Simpson–Margolin procedure for detecting downturn data, and a trend test to evaluate the dose dependency [42, 43]. The acceptability criterion for the test was that the MF value of the positive control group of each laboratory was increased with statistical significance compared with that of the concurrent negative control group.
Data set [4] relates to TA1538, TA100, TA98, TA97, TA1535. The conditions noted are these: cited from earlier work.
In data set [5] the test system is rodent. The conditions noted are these: cited from earlier work.
In data set [6] the test system is L5178Y mouse lymphoma cells. The conditions noted are these: cited from earlier work.
In another data set the test system is livers of rats. Particulars: ref [74]; cited from earlier work.
Data set [7] relates to rats. The conditions noted are these: cited from earlier work.
For another data set, the system named is gpt transgenic rats. Also noted: method as in PMID 20026473, doi:10.3123/jemsge.34.25. Particulars: ref [23], [78]; cited from earlier work.

Entries after “also recorded” stand apart in the source; their conditions may differ.

With `Cc1c(N)cccc1N` [2,6-Diaminotoluene], the “hepatocellular proliferation in rats” value in the data set with rats [1] is listed as “negative”. Moreover, in the data set on rodent [2], the “in vivo genotoxicity tests” value was “negative”. Also, the “comet assay of various mouse organs” value in the data set with mouse organs is recorded as “negative”. Besides, the cytotoxicity result with TK6 cells is listed as “More than 80%”. Also, the “mutagenic assay with LacI transgenic mice” value with LacI transgenic mice is “negative”. Moreover, the “TK6 assay result (mutant frequency increase, judgment)” value is “Statistically significant increases of MF; also recorded: mutagenic” in data set [3] (4h treatment (+S9)), “negative” in data set [3] (4h treatment (-S9)) and “Statistically significant increases of MF; also recorded: positive; also recorded: mutagenic” in data set [3] (24h treatment (-S9)). Further, the “TK mutation assay, Long term” value in data set [3] (24 h, without S9) is listed as “Pos”. Moreover, the “TK6 assay overall judgment” value in data set [3] (all treatments) is “positive”. Also, the “TK mutation assay, With S9” value in [3] (short-term 4 h, with rat liver S9) was “Pos”. Moreover, the “TK mutation assay, Without S9” value in data set [3] (short-term 4 h, without S9) is given as “Neg”. For the same molecule, the “The Highest Specific Activity and the Strain” value in [4] (TA100 with S9, ref Table 2) is recorded as 1703 revertants/mg in TA100 with S9. The “Bacterial reverse mutation assay, With S9” value in data set [4] (with S9, ref [18]-[40], Table 2) is “Pos”. Moreover, the “Bacterial reverse mutation assay, Without S9” value in data set [4] (without S9, ref [18]-[40], Table 2) is “Neg”. Besides, in the data set with rodent [5] (report of the National Toxicology Program, ref [24]), the carcinogenicity entry is “non-carcinogenic”. In addition, the “Carcinogenicity Studies” value with rodent [5] (rodent, ref [20]-[41], Table 2) is reported as “Neg”. For the same molecule, the “mutagenicity in MLA using L5178Y mouse lymphoma cells” value in data set [6] (4 h, −S9, ref [68]) is given as “occurs”. In [6] (without S9, ref [27], [46]-[53], Table 3), the “MLA (TK gene locus), Without S9” value is reported as “Pos”. In addition, in the data set with livers of rats, the “DNA adducts in the livers of rats” value is given as “marginal amount of adducts”. Moreover, the UDS assay entry in the data set on rats [7] (high dose, ref [79]) is recorded as “positive”. For the same molecule, the “unscheduled DNA synthesis (UDS) assay in rats” value with rats [7] (ref [76]) was “negative”. Moreover, the “gpt mutagenic assay with transgenic rats” value with gpt transgenic rats is given as “negative”.

These data come from paper PMC7937321 (Genes and Environment, 2021).
